Assay results taken from US7955618B2, “Composition for treatment of inflammatory disorders” (Enceladus Pharmaceuticals B.V., priority 2001, dated 2011).

Tests used:
[1] = system: AT-EAE (T cells and macrophages in spinal cord); conditions: 50 mg/kg i.v. at 18 h and 6 h before perfusion
Protocol: Adoptive Transfer Experimental Autoimmune Encephalomyelitis (AT-EAE) was induced in female Lewis rats by intravenous injection of 10^7 MBP-specific T cells.
10 mg/kg prednisolone phosphate containing liposomes, as prepared according to Example I, were applied intravenously at 42 hours and 18 hours prior to sacrifice. Another group received 50 mg/kg methylprednisolone intravenously at 18 hours and 6 hours before perfusion. Control rats received empty liposomes and/or saline at equivalent time points.
T cells or macrophages in spinal cord were detected immunohistochemically in paraffin embedded tissue and apoptosis was assessed by the TUNEL assay and by morphological criteria. Student t test for grouped data was used for statistical analysis.

[2] = system: rat adjuvant arthritis model (paw inflammation); experiment: Rat adjuvant arthritis model, visual paw inflammation score; assay type: in vivo, Lewis rats; conditions: for average inflammation score: day 15 until day 21, 6.5±0.56 on day 14, daily saline max 10.6±1.3 on day 20; for effect on course of the disease (paw inflammation): single injection, doses equal to liposomal drug, p>0.05 Kruskall-Wallis
Protocol: Lewis rats were immunized subcutaneously at the tail base with heat-inactivated Mycobacterium tuberculosis in incomplete Freund's adjuvant.
Assessment of the disease was performed by visually scoring paw inflammation severity, maximum score 4 per paw, and measuring disease-induced body weight loss. […] Rats were treated when the average score >6 (at day 14 or 15 after disease induction).

Compound	clinical score ([1]; controls 3.2±0.3)	macrophage infiltration in spinal cord ([1]; controls 78±37) [macrophages/mm^2]	T cell infiltration in spinal cord ([1]; controls 115±51) [T cells/mm^2]	rate of T cell apoptosis in spinal cord tissue ([1]; mean±SD, control 16.1±4.3%) [%]	average inflammation score ([2]; 10 mg/kg daily for 7 days)	average inflammation score ([2]; 20 mg/kg daily for 7 days)	effect on course of the disease (paw inflammation) [2]	effect on course of the disease (paw inflammation) ([2]; listed as unencapsulated prednisolone phosphate)
C[C@H]1C[C@@H]2[C@H]([C@@H](O)C[C@@]3(C)[C@H]2CC[C@]3(O)C(=O)CO)[C@@]2(C)C=CC(=O)C=C12 [Methylprednisolone, methylprednisolone]	3.2±0.3	66±25	96±19	30.8±8.0				
prednisolone disodium phosphate [Unencapsulated prednisolone phosphate]					around 5.0	around 5.0	did not significantly alter the course of the disease	No effect
